According to US20250084138A1, “POLYPEPTIDE HAVING EFFECT OF INHIBITING PROLIFERATION OF LEUKEMIA CELLS” (NANJING FENGRUI BIOTECHNOLOGY CO., LTD, priority 2019, published 2025):
Peptide text beside a SMILES is read from it. * marks the point of attachment. Myristoyl = CCCCCCCCCCCCCC(=O)*

Columns and labels:
[1] = system: Baf-3 cells of normal mouse hematopoietic cells (mIL-3 dependent); conditions: Baf-3 normal mouse hematopoietic cells
[2] = system: Baf-3 cells of normal mouse hematopoietic cells (mIL-3 dependent); assay: Baf-3 normal cells co-incubated with the polypeptide, cell counting; type: cell-based
Protocol: (§1) The selected experimental cells were: • K562 cells of human chronic myeloid leukemia cell line (CML); • Jurkat cells of acute T lymphocyte leukemia cell line (T-ALL); • THP-1 cells of acute myeloid leukemia cell line (AML); • Baf-3 cells of normal mouse hematopoietic cells (mIL-3 dependent).
(§2) This experiment was grouped into a normal control group, a polypeptide control group, and an experimental polypeptide group.
(§3) Firstly, the polypeptide of the present disclosure was co-incubated with 5*103 (marked as the third power of 10) leukemia tumor cells for 38 h, and the proliferation speed of the cells was detected by two methods of detecting proliferation of the cells (CCK-8) and cell counting, so as to observe the inhibitory effect of the polypeptide on the tumor cells.
(§4) Secondly, the polypeptide was co-incubated with the cells for 24 h, and then collected again, counted, and cultured with drug addition for 38 h, and then detected for the proliferation rate of the cells (CCK-8).
Thirdly, we used normal mouse hematopoietic cells to carry out the same experiment as the above to observe the effect of the polypeptide on normal cells.
(§5) Each group included one blank (Control), one control peptide (C-p), and three target peptides (P-t, taking an average as the result)

[3] = system: Jurkat cells of acute T lymphocyte leukemia cell line (T-ALL); assay: Jurkat cells co-incubated with the polypeptide, cell counting; type: cell-based
Protocol: as §1, §2, §3, §4, §5

[4] = system: various leukemia cells; assay: Overall conclusion on proliferation of the three leukemia cell lines; type: cell-based; conditions: K562, Jurkat, THP-1; positive correlation with dosage and times of administration
Protocol: as §1, §3, §4
The leukemia subtypes represented by the aforementioned three leukemia cells have covered more than 70% of the number of leukemia patients.

[5] = system: K562 cells of human chronic myeloid leukemia cell line (CML); assay: K562 cells co-incubated with the polypeptide, cell counting; type: cell-based
Protocol: as §1, §2, §3, §4, §5

[6] = system: THP-1 cells of acute myeloid leukemia cell line (AML); assay: Thp-1 cells co-incubated with the polypeptide, cell counting; type: cell-based
Protocol: as §1, §2, §3, §4, §5

In the case of CCCCCCCCCCCCCC(=O)N[C@@H](CCCCN)C(=O)N[C@@H](CCC(=O)O)C(=O)N[C@@H](CO)C(=O)N[C@@H](CCSC)C(=O)N[C@@H](CC(=O)O)C(=O)N[C@@H](C)C(=O)N[C@@H](CC(N)=O)C(=O)N[C@@H](CCCCN)C(=O)N1CCC[C@H]1C(=O)N[C@H](C(=O)N[C@@H](CCCCN)C(=O)N[C@@H](CC(N)=O)C(=O)N[C@@H](CC(C)C)C(=O)N1CCC[C@H]1C(=O)N[C@@H](CC(C)C)C(=O)N[C@@H](CCCCN)C(=O)N[C@@H](CCCCN)C(=O)N[C@H](C(=O)N1CCC[C@H]1C(=O)N[C@@H](CS)C(=O)N[C@@H](CCCCN)C(=O)N[C@H](C(=O)N[C@@H](CO)C(=O)N[C@@H](C)C(=O)N1CCC[C@H]1C(=O)N[C@@H](CO)C(=O)N[C@@H](CCC(N)=O)C(=O)N[C@@H](CO)C(=O)N[C@@H](Cc1ccccc1)C(=O)N[C@@H](Cc1ccccc1)C(=O)N[C@@H](C)C(=O)N[C@@H](CCCNC(=N)N)C(=O)N[C@@H](CC(=O)O)C(=O)N[C@@H](CC(N)=O)C(=O)N[C@H](C(=O)N[C@@H](C)C(=O)N[C@@H](CC(N)=O)C(=O)O)[C@@H](C)O)[C@@H](C)O)[C@@H](C)CC)[C@@H](C)O [P-t] (Myristoyl-KESMDANKPTKNLPLKKIPCKTSAPSQSFFARDNTAN-OH), the “inhibitory effect on the proliferation of normal cells” value [1] is reported as “no inhibitory effect”, the Cell count ([2]; Baf-3, 10 uM, 24 + 38 h, first experiment) is reported as 100.11% and the Cell count ([2]; Baf-3, 10 uM, 38 h, first experiment) is reported as 99.98%. For the same molecule, the Cell count ([2]; Baf-3, 15 uM, 24 + 38 h, second experiment) was 100.83%, the Cell count ([2]; Baf-3, 15 uM, 38 h, second experiment) was 100.41% and the Cell count ([3]; 10 uM, 38 h, first experiment) was 106%. It also gave a Cell count ([3]; 15 uM, 24 + 38 h, first experiment) of 70.09 ± 18.75%, a Cell count ([3]; 15 uM, 24 + 38 h, second experiment) of 65.12% and a Cell count ([3]; 15 uM, 38 h, first experiment) of 69.55 ± 8.35 %. For the same molecule, the Cell count ([3]; 15 uM, 38 h, second experiment) was 73.17%, the “inhibition of the proliferation of various leukemia cells” value [4] was “obviously inhibit” and the Cell count ([5]; K562, 10 uM, 24 + 38 h, first experiment) was 66.95%. It also gave a Cell count ([5]; K562, 10 uM, 38 h, first experiment) of 90.22 ± 28.17%, a Cell count ([5]; K562, 15 uM, 24 + 38 h, second experiment) of 70.09% and a Cell count ([5]; K562, 15 uM, 38 h, first experiment) of 69.55%. For the same molecule, the Cell count ([5]; K562, 15 uM, 38 h, second experiment) was 80.00%, the Cell count ([6]; Thp-1, 10 uM, 38 h, first experiment) was 80.56% and the Cell count ([6]; Thp-1, 15 uM, 24 + 38 h, first experiment) was 63.75%. It also gave a Cell count ([6]; Thp-1, 15 uM, 24 + 38 h, second experiment) of 68.22%, a Cell count ([6]; Thp-1, 15 uM, 38 h, first experiment) of 63.17 ± 2.50% and a Cell count ([6]; Thp-1, 15 uM, 38 h, second experiment) of 70.09%.
